Where two headings read alike, the source gives them in different places.
Assays:
C57BL/6 mice = test: Marble burying test (MBT) in mice; format: in vivo, mouse; conditions: 30-minute period, compared to vehicle, FIG. 3
Procedure: Compound 1 produced an anxiolytic-like effect in the marble burying test (MBT) in C57BL/6 mice (FIG. 3).
Animals. Adult male C57BL/6 mice, aged 8-10 weeks (body weight 20-25 g) were used in these experiments. Animals were housed under controlled temperatures and 12-hour light/dark cycles (lights on between 07:00-19:00 h), with ad libitum food and water. This study was carried out in strict accordance with the requirements of the Committee for the Purpose of Control and Supervision of Experiments on Animals (CPCSEA), India. All efforts were made to minimize suffering.
Marble Burying Test (MBT). […] Mice were handled for about 2 min daily for the 3 days prior to the beginning of the experimental procedure. Twenty glass marbles (16 mm diameter) were placed with equal distances in a 5×4 pattern on a 5-cm layer of corn-cob bedding, with marbles at least 2 cm from the borders of the cage. The total number of marbles buried were counted in three 10-minute time bins (total 30 minutes). A marble was considered buried when it was >⅔ covered by bedding material.
Statistical Analysis. The data points shown are the mean±standard error of the mean (SEM). Analysis was performed using GraphPad Prism 6. Comparisons between groups were performed using the one-way analysis of variance (ANOVA), followed by Dunnett's test for comparisons to vehicle. […]

in vitro = in vitro ADME, human; conditions: human, microsomes, role: substrate, metabolite 83 formed in HLM, read-out: Metabolite Formation (percent formation of metabolite 83)
Procedure: The ability of deuteration in compound 68 to attenuate formation of metabolite 83 compared to the same transformation of the non-deuterated compound 18 was also determined.
HLM Stability. Pooled HLM from adult male and female donors (Corning 452117) were used.

| Compound | number of marbles buried (C57BL/6 mice) | metabolised (in vitro; T = 0) [%] | metabolised (in vitro; T = 5) [%] | metabolised (in vitro; T = 15) [%] | metabolised (in vitro; T = 30) [%] | metabolised (in vitro; T = 45) [%] | metabolised (in vitro; T = 60) [%] |
| --- | --- | --- | --- | --- | --- | --- | --- |
| CCCN1C[C@H](C(=O)N(CC)CC)C=C2c3cccc4[nH]cc(c34)C[C@H]21 [Compound 1, (6aR,9R)—N,N-diethyl-7-propyl-4,6,6a,7,8,9-hexahydroindolo[4,3-fg]quinoline-9-carboxamide] | reduced the number of marbles buried in a 30-minute period compared to vehicle | – | – | – | – | – | – |
| CCN(CC)C(=O)[C@@H]1C=C2c3cccc4[nH]cc(c34)C[C@H]2N(Cc2cccc(OC)c2)C1 [Compound 18, (6aR,9R)—N,N-diethyl-7-(3-methoxybenzyl)-4,6,6a,7,8,9-hexahydroindolo[4,3-fg]quinoline-9-carboxamide] | – | 0.1 | 3.4 | 6.1 | 7.6 | 8.1 | 8.4 |
